# Assay results: US8729113B2 (Hoffmann-La Roche Inc., priority 2008, dated 2014)
# Molecular target: TAAR1 (Mus musculus (Mouse), UniProt Q923Y8)
# Test: Radioligand binding assay on TAAR1: Kd of the radioligand
# Conditions: binding assay at 4° C.; species of TAAR1 not stated; read-out: calculated Kd value of the radioligand
# Experimental: Cells at confluence were rinsed with ice-cold phosphate buffered saline without Ca^2+ and Mg^2+ containing 10 mM EDTA and pelleted by centrifugation at 1000 rpm for 5 min at 4° C. The pellet was then washed twice with ice-cold phosphate buffered saline and cell pellet was frozen immediately by immersion in liquid nitrogen and stored until use at −80° C. Cell pellet was then suspended in 20 ml HEPES-NaOH (20 mM), pH 7.4 containing 10 mM EDTA, and homogenized with a Polytron (PT 3000, Kinematica) at 10,000 rpm for 10 s. The homogenate was centrifuged at 48,000×g for 30 min at 4° C. and the pellet resuspended in 20 ml HEPES-NaOH (20 mM), pH 7.4 containing 0.1 mM EDTA (buffer A), and homogenized with a Polytron at 10,000 rpm for 10 s. The homogenate was then centrifuged at 48,000×g for 30 min at 4° C. and the pellet resuspended in 20 ml buffer A, and homogenized with a Polytron at 10,000 rpm for 10 s. Protein concentration was determined by the method of Pierce (Rockford, Ill.). […]
# Binding assay was performed at 4° C. in a final volume of 1 ml, and with an incubation time of 30 min. […] The tubes and filters were then washed 3 times with 1 ml aliquots of cold buffer B. Filters were not dried and soaked in Ultima gold (45 μl/well, Packard Instrument Company) and bound radioactivity was counted by a TopCount Microplate Scintillation Counter (Packard Instrument Company).
smiles,measurement,value
"c1ccc2c(c1)CCCC2C1=NCCN1 (racemic) [[^3H]-rac-2-(1,2,3,4-tetrahydro-1-naphthyl)-2-imidazoline]",Kd,0.06 µM
